Measured values published in patent US5185319A, “Stabilization of organic compounds” (National Research Development Corporation, priority 1989, dated 1993).

Legend:
[1] = molecular target: porcine insulin (Sus scrofa, UniProt P01315); assay: Stability of insulin in solution with chelating agent, reverse phase HPLC; format: physicochemical; details: pH 7.0 solution; for effect on stability of insulin (amount of insulin present as percentage of the original amount): 100 μM chelating agent, 4, 8 and 12 weeks
porcine insulin, sequence (P01315 25-54 limits assumed): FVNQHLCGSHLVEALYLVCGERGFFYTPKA
porcine insulin, sequence (P01315 88-108 limits assumed): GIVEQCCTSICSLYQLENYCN
Experimental: A solution was prepared corresponding to that described in Example 1 containing porcine insulin and being pyrogen-free but not sterile. For comparative purposes a further solution was prepared in which the hydroxypyridone was replaced by the alternative chelating agent 3-hydroxy-2-methyl-4-pyrone.
The solutions were incubated at either 4° C. or 37° C. and the stability of the insulin was studied over a period of 12 weeks through use of the reverse phase HPLC method described by Seipke et al, Angew. Chem. Int. Ed. Engl., 1986, 25, 535-552 and by Grau, Diabetologia, 1985, 28, 458-463. The amount of insulin present in the solution at 4, 8 and 12 weeks was then calculated as a percentage of the original amount present.

[2] = test system: insulin; assay: Investigation of chelating agents for stabilization of insulin; format: physicochemical

Row | degradation of insulin over the whole period of 12 weeks ([1]; incubated at 4° C., 100 μM chelating agent) | effect on stability of insulin (amount of insulin present as percentage of the original amount) ([1]; incubated at 4° C.) | effect on stability of insulin (amount of insulin present as percentage of the original amount) ([1]; incubated at 37° C.) | stabilizing effect on insulin [2] | SMILES
1 | no degradation was observed | stabilises insulin | stabilises insulin, to some extent |  | COCCn1ccc(=O)c(O)c1C [3-hydroxy-1-(2'-methoxyethyl)-2-methylpyrid-4-one]
2 |  | destabilises insulin | destabilises insulin | no stabilizing effect | Cc1occc(=O)c1O [3-hydroxy-2-methyl-4-pyrone]
3 |  |  |  | no stabilizing effect | O=C(O)CN(CCN(CC(=O)O)CC(=O)O)CC(=O)O [ethylene diamine tetra-acetic acid]
